Source: patent US20100197749A1, “CHEMICAL COMPOUNDS” (ASTRAZENECA AB, priority 2006, published 2010)

Molecular target: T1, EDG-1/S1P1 receptor (Homo sapiens, UniProt P21453)
T1 construct: expressed in transfected cells; host or cells: U2OS (human osteosarcoma), EDG-1 Transfluor U20S WT Clone #37
Test: In Vitro Cell Based Receptor Activation Assay-Transfluor Assay
Details: inhibition of S1P-stimulated (375 nM or 750 nM) beta-arrestin GFP relocalization; EDG-1 Transfluor U20S WT Clone #37 cells
Description: The following assay can be used to measure the effects of the compounds of the present invention as S1P1/Edg1 inhibitors.
This cell-based assay was designed to assess the ability of small molecule antagonists to inhibit activation of the GPCR S1P1 in the presence of its cognate ligand S1P. The assay used technology initially developed by Norak Biosciences (Xsira Pharmaceutical) and presently owned by Molecular Devices. A human osteogenic sarcoma (U20S) cell line overexpressing the EDG-1/S1P1) receptor as well as a beta-arrestin/green fluorescent protein (GFP) construct hereafter termed EDG-1 Transfluor U20S WT Clone #37 was employed.
Using a high content screening approach (Cellomics Arrayscan), receptor activity was measured by assessment of the relocalization of beta-arrestin GFP in response to stimulation of EDG-1 by SIP. Specifically, EDG-1 Transfluor U20S WT Clone #37 cells were plated at a density of 6250 cells in 40 μL medium per well in 384 well plastic bottomed microtiter plates (BD Falcon) and incubated overnight at 37° C./5% CO2. Prior to screening, compounds were dissolved in 100% dimethyl sulfoxide (DMSO) to a final stock concentration of 10 mM. […] Plates were then sealed and analysed on the Cellomics Arrayscan using the GPCR signalling algorithm. EC50 values were then calculated using IDBS ActivityBase software.

Structure (SMILES)	EC50
CCn1c(C(C)NS(=O)(=O)c2ccc(Cl)cc2)nnc1C(F)(F)F (centres unmarked) [Example 11, 4-Chloro-N-[1-(4-ethyl-5-trifluoromethyl-4H-[1,2,4]triazol-3-yl)-ethyl]-benzenesulfonamide]	670 nM
CCn1c(OC)nnc1[C@@H](Cc1cccnc1)NS(=O)(=O)c1ccc(Cl)cc1 [Example 16, 4-Chloro-N-[(R)-1-(4-ethyl-5-methoxy-4H-[1,2,4]triazol-3-yl)-2-pyridin-3-yl-ethyl]benzenesulfonamide]	133 nM
